Measurements as given in the CheMixHub ionic liquid set.

Assay: xn = mol fraction of the nth substance listed

CC[n+]1ccn(CCOC)c1.O=S(=O)([O-])C(F)(F)F + CCCO
viscosity [mPa·s], 101 kPa
Conditions | x1 = 0.0987 | x1 = 0.1999 | x1 = 0.2982 | x1 = 0.3994 | x1 = 0.499 | x1 = 0.599 | x1 = 0.698 | x1 = 0.801 | x1 = 0.899 | x1 = 1
288.15 K | 4.257 | 6.11 | 10 | 14.17 | 23.2 | 31.9 | 45.2 | 63.3 | 88.6 | 121
293.15 K | 3.751 | 4.78 | 8.54 | 12.17 | 19.23 | 26.22 | 36.7 | 50.5 | 69.1 | 92.5
298.15 K | 3.282 | 4.18 | 7.36 | 10.61 | 16.22 | 21.94 | 30.16 | 41 | 55.3 | 72.5
303.15 K | 2.914 | 3.72 | 6.41 | 9.35 | 13.09 | 18.61 | 25.17 | 33.69 | 44.8 | 57.9
308.15 K | 2.594 | 3.59 | 5.63 | 8.33 | 11.23 | 15.98 | 21.29 | 28.1 | 36.86 | 47.3
313.15 K | 2.321 | 3.205 | 4.98 | 7.49 | 10.09 | 13.81 | 18.34 | 23.8 | 30.74 | 39
318.15 K | 2.086 | 3.097 | 4.43 | 6.8 | 8.6 | 12 | 15.84 | 20.29 | 25.97 | 32.59

CCC[N+]1(C)CCCC1.N#C[N-]C#N + CCC[N+]1(C)CCCC1.O=S(=O)([N-]S(=O)(=O)C(F)(F)F)C(F)(F)F
333.15 K, 101 kPa
Conditions | electrical conductivity [S/m] | viscosity [mPa·s]
x1 = 0.25 | 1.38 | 16.8
x1 = 0.75 | 2.72 | 13.2

CCCCCCCC(=O)[O-].c1c[nH+]c[nH]1 + CCO
101.3 kPa
Conditions | viscosity [mPa·s]
293.15 K, x2 = 0.1984 | 53.79
293.15 K, x2 = 0.301 | 40.4
293.15 K, x2 = 0.5999 | 14.5
298.15 K, x2 = 0.8989 | 2.949
303.15 K, x2 = 0.1043 | 45
303.15 K, x2 = 0.5999 | 12
303.15 K, x2 = 0.8989 | 2.686
313.15 K, x2 = 0 | 36.92
313.15 K, x2 = 0.301 | 21.5
313.15 K, x2 = 0.5999 | 9.9
313.15 K, x2 = 0.7006 | 6.9
318.15 K, x2 = 0.5999 | 9
318.15 K, x2 = 0.8989 | 2.125

CC[n+]1ccn(C)c1.COS(=O)(=O)[O-] + CCO
viscosity [mPa·s], 101 kPa
Conditions | 283.15 K | 293.15 K | 303.15 K | 313.15 K | 323.15 K
x1 = 0.0561 | 2.15 | 1.77 | 1.48 | 1.24 | 1.04
x1 = 0.112 | 2.99 | 2.44 | 2.02 | 1.7 | 1.44
x1 = 0.213 | 5.56 | 4.37 | 3.53 | 2.81 | 2.36
x1 = 0.3285 | 9.85 | 7.62 | 6.01 | 4.85 | 3.98
x1 = 0.356 | 11.14 | 8.61 | 6.78 | 5.44 | 4.44
x1 = 0.525 | 23.46 | 17.1 | 12.99 | 10.15 | 8.15
x1 = 0.632 | 38.01 | 26.49 | 19.73 | 14.91 | 11.58
x1 = 0.7294 | 55 | 36.84 | 26.04 | 19.5 | 15
x1 = 0.8202 | 76.5 | 49.25 | 33.81 | 24.48 | 18.59
x1 = 0.9108 | 106.9 | 66 | 43.92 | 30.93 | 22.87
x1 = 0.9556 | 124.7 | 75.7 | 49.57 | 34.48 | 25.22
x1 = 1 | 141 | 84.1 | 57.9 | 39.54 | 28.33
